Reference: patent US6251944A, “Para-substituted phenylene derivatives” (G. D. Searle & Company, priority 1999, dated 2001)
Counter-ions that a name gives are not always drawn.

Legend:
[1] = target: T1, Human vitronectin receptor(αvβ3) (Homo sapiens, UniProt P05106+P06756); test: Vitronectin adhesion assay (solid phase receptor assay, αvβ3); details: inhibition of 50% of maximum binding of biotinylated vitronectin; highest concentration tested 1.0×10^-4 M; read-out: AvB3 IC50
T1 construct: purified from human placenta; from tissue; host or cells: human placenta
T1 sequence (P06756 31-889 limits assumed): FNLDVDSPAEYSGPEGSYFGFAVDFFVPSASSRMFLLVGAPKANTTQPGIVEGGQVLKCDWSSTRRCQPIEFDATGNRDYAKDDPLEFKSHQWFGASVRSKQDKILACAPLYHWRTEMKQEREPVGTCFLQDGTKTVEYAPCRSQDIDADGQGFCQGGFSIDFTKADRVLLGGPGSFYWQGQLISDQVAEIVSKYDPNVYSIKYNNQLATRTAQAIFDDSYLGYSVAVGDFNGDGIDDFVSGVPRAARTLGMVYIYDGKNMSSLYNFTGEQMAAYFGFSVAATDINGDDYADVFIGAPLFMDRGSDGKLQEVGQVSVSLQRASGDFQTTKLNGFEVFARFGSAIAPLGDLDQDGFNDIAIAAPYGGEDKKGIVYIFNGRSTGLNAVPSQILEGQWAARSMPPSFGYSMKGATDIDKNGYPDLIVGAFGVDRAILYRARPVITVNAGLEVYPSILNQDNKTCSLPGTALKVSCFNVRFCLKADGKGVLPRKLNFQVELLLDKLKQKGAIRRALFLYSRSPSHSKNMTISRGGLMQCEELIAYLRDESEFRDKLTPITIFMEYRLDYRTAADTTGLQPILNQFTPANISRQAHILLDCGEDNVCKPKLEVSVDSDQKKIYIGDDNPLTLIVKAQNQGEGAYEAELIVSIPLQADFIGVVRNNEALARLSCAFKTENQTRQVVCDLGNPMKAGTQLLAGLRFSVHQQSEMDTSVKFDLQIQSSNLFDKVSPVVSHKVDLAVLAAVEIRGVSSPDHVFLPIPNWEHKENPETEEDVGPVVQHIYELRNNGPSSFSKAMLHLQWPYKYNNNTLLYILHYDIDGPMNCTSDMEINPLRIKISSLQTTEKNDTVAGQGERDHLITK
T1 sequence (P06756 891-1048 limits assumed): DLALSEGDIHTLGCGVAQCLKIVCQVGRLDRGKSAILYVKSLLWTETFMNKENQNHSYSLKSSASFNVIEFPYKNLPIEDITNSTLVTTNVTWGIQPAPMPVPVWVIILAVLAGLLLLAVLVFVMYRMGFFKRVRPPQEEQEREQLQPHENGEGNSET
T1 sequence (P05106 27-788): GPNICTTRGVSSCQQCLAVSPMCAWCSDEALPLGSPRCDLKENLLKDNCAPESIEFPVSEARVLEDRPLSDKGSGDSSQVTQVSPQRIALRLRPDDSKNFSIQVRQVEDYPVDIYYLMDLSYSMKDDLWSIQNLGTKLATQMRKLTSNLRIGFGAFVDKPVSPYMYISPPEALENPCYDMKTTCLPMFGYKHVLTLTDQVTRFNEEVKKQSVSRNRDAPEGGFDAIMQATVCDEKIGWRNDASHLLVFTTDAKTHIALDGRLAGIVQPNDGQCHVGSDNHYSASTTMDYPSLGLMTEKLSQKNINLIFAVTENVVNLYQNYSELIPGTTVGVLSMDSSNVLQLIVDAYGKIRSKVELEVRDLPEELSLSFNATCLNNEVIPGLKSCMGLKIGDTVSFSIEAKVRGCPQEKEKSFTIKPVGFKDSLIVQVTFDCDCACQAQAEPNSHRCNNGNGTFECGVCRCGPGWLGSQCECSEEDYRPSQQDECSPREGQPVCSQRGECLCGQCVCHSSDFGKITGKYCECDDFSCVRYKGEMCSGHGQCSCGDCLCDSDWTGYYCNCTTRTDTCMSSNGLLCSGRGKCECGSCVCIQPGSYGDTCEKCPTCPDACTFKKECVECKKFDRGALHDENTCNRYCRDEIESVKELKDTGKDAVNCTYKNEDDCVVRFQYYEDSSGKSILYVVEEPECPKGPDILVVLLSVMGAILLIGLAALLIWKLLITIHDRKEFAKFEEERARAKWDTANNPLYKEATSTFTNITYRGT
Procedure: The activity of the compounds of the present invention was tested in the following assays. […] Assay buffer, OPD substrate tablets, and RIA grade BSA were obtained from Sigma (St. Louis, Mo.). Anti-biotin antibody was obtained from Calbiochem (La Jolla, Calif.). Linbro microtiter plates were obtained from Flow Labs (McLean, Va.). ADP reagent was obtained from Sigma (St. Louis, Mo.). […] The purified human vitronectin receptor (αvβ3) was diluted from stock solutions to 1.0 μg/mL in Tris-buffered saline containing 1.0 mM Ca^++, Mg^++, and Mn^++, pH 7.4 (TBS^+++). The diluted receptor was immediately transferred to Linbro microtiter plates at 100 μL/well (100 ng receptor/well). The plates were sealed and incubated overnight at 4° C. to allow the receptor to bind to the wells. All remaining steps were at room temperature. The assay plates were emptied and 200 μL of 1% RIA grade BSA in TBS^+++ (TBS^+++ /BSA) were added to block exposed plastic surfaces. Following a 2 hour incubation, the assay plates were washed with TBS^+++ using a 96 well plate washer. […] The competition occurred for two hours after which all wells were washed with a plate washer as before. […] After 30 minutes, the plates were washed and incubated with OPD/H2 O2 substrate in 100 mM/L Citrate buffer, pH 5.0. […] The data were analyzed using a macro written for use with the EXCEL™ spreadsheet program. The mean, standard deviation, and % CV were determined for duplicate concentrations. The mean A450 values were normalized to the mean of four maximum-binding controls (no competitor added)(B-MAX). The normalized values were subjected to a four parameter curve fit algorithm [Rodbard et al., Int. […] Ser.

[2] = target: T2, Human fibrinogen receptor (αIIbβ3) (Homo sapiens, UniProt P05106+P08514); test: Purified IIb/IIIa receptor assay (solid phase receptor assay); details: inhibition of 50% of maximum binding of biotinylated vitronectin; highest concentration tested 1.0×10^-4 M
T2 construct: purified from outdated platelets; from tissue; host or cells: outdated platelets (human)
T2 sequence (P08514 32-887 limits assumed): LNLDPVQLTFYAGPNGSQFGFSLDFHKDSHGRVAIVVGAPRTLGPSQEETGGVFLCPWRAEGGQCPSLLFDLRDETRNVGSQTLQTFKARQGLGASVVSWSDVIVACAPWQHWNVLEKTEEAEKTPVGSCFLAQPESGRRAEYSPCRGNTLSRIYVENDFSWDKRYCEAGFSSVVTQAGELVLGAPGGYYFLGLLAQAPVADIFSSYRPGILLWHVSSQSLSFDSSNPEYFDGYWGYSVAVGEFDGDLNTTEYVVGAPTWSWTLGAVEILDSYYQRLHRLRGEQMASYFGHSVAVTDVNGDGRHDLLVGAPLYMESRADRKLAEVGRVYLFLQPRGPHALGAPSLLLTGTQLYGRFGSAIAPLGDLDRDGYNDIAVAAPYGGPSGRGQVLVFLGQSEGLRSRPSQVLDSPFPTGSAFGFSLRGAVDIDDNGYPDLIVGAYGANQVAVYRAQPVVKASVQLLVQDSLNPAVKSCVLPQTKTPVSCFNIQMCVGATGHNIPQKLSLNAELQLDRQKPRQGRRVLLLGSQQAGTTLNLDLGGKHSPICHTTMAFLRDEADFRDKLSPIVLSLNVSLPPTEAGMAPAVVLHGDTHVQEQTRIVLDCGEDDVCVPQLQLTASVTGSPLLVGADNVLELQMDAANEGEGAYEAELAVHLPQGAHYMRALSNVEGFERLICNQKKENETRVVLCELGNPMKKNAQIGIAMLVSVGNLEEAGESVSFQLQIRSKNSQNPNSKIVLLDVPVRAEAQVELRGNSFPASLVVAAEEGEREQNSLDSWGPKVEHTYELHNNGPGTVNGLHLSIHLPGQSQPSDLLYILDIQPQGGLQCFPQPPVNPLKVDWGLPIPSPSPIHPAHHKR
T2 sequence (P08514 891-1039 limits assumed): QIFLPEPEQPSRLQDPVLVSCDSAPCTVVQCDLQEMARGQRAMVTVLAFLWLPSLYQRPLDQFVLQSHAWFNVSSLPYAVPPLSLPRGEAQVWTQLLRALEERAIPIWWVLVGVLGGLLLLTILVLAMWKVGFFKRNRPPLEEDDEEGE
T2 sequence (P05106 27-788): as the sequence (P05106 27-788) above
Procedure: The activity of the compounds of the present invention was tested in the following assays.
Human fibrinogen receptor (αIIbβ3) was purified from outdated platelets. […] Biotinylated human vitronectin was prepared by coupling NHS-biotin from Pierce Chemical Company (Rockford, Ill.) to purified vitronectin as previously described. […] Anti-biotin antibody was obtained from Calbiochem (La Jolla, Calif.). Linbro microtiter plates were obtained from Flow Labs (McLean, Va.). ADP reagent was obtained from Sigma (St. Louis, Mo.).
Solid Phase Receptor Assays
The purified human fibrinogen receptor (αIIbβ3) was diluted from stock solutions to 1.0 μg/mL in Tris-buffered saline containing 1.0 mM Ca^++, Mg^++, and Mn^++, pH 7.4 (TBS^+++). The diluted receptor was immediately transferred to Linbro microtiter plates at 100 μL/well (100 ng receptor/well). The plates were sealed and incubated overnight at 4° C. to allow the receptor to bind to the wells. All remaining steps were at room temperature. The assay plates were emptied and 200 μL of 1% RIA grade BSA in TBS^+++ (TBS^+++ /BSA) were added to block exposed plastic surfaces. Following a 2 hour incubation, the assay plates were washed with TBS^+++ using a 96 well plate washer. Logarithmic serial dilution of the test compound and controls were made starting at a stock concentration of 2 mM and using 2 nM biotinylated vitronectin in TBS^+++ /BSA as the diluent. This premixing of labeled ligand with test (or control) ligand, and subsequent transfer of 50 μL aliquots to the assay plate was carried out with a CETUS Propette robot; the final concentration of the labeled ligand was 1 nM and the highest concentration of test compound was 1.0×10^-4 M. The competition occurred for two hours after which all wells were washed with a plate washer as before. Affinity purified horseradish peroxidase labeled goat anti-biotin antibody was diluted 1:3000 in TBS^+++ /BSA and 125 μL were added to each well. After 30 minutes, the plates were washed and incubated with […]/H2 O2 substrate in 100 mM/L citrate buffer, pH 5.0. The plate was read with a microtiter plate reader at a wavelength of 450 nm and when the maximum-binding control wells reached an absorbance of about 1.0, the final A450 were recorded for analysis. The data were analyzed using a macro written for use with the EXCEL™ spreadsheet program. The mean, standard deviation, and % CV were determined for duplicate concentrations. The mean A450 values were normalized to the mean of four maximum-binding controls (no competitor added) (B-MAX). The normalized values were subjected to a four parameter curve fit algorithm, [Robard et al., Int.

Structure (SMILES) | IC50 [1] [nM] | IC50 [2] [nM]
N=C(N)c1cccc(C(=O)Nc2ccc(CCC(=O)O)cc2)c1 [Example 20, 4-[[[3-(Aminoiminomethyl)phenyl]carbonyl]-amino]benzenepropanoic Acid] | > 100000 | 39900
CC(C)(C)CC(=O)NC(Cc1ccc(NC(=O)c2cccc(NC(=N)N)c2)cc1)C(=O)O (stereo not drawn) [Example 109, 4-[[[3-[(aminoiminomethyl)amino]phenyl]carbonyl]amino]-N-(3,3-dimethyl-1-oxobutyl)phenylalanine, trifluoroacetate Salt] | 5 | 111
CC(C)(C)NC(=O)NC(Cc1ccc(NC(=O)c2cccc(NC(=N)N)c2)cc1)C(=O)O (stereo not drawn) [Example 124, 4-[[[3-[(aminoiminomethyl)amino]phenyl]carbonyl)amino]-N-[[(1,1-dimethylethyl)amino]carbonyl]phenylalanine, trifluoroacetate Salt] | 3 | 285
CCOC(=O)C(Oc1ccc(NC(=O)c2cccc(NC(=N)N)c2)cc1)c1ccccc1 (stereo not drawn) [Example 86C, ethyl α-[4-[[[3-[(aminoiminomethyl)amino]phenyl]carbonyl]amino]phenoxy]benzeneacetate, trifluoroacetate Salt] | 56800 | > 100000
CCOC(=O)CSc1ccc(NC(=O)c2cccc(NC(=N)N)c2)cc1 [Example 90, ethyl[[4-[[(3-[(aminoiminomethyl)amino]phenyl]carbonyl]amino]phenyl]thio]acetic Acid, trifluoroacetate] | 23700 | 34500
CCOC(=O)C(Cc1ccc(NC(=O)c2cccc(NC(=N)N)c2)cc1)NC(=O)c1ccccc1 (stereo not drawn) [Example 36, 4-[[[3-[(aminoiminomethyl)amino]phenyl]-carbonyl]amino]-N-(phenylcarbonyl)phenylalanine Ethyl Ester, monohydrate trifluoroacetate Salt] | 1010 | 10500
CC(=O)NC(Cc1ccc(NC(=O)c2cccc(NC(=N)N)c2)cc1)C(=O)O (stereo not drawn) [Example 35, N-acetyl-4-[[[3-[(aminoiminomethyl)amino]-phenyl]carbonyl]amino]phenylalanine, trifluoroacetate Salt] | 2.69 | 148
CCOC(=O)C(Cc1ccc(NC(=O)c2cccc(NC(=N)N)c2)cc1)NS(C)(=O)=O (stereo not drawn) [Example 37, 4-[[[3-[(aminoiminomethyl)amino]phenyl]carbonyl]amino]-N-(methylsulfonyl)phenylalanine Ethyl Ester, monohydrate trifluoroacetate Salt] | 97.8 | 2380
N=C(N)Nc1cccc(C(=O)Nc2ccc(C(CC(=O)O)C(=O)NCC(=O)O)cc2)c1 (stereo not drawn) [Example 73, 4-[[[3-[(aminoiminomethyl)amino]phenyl]-carbonyl]amino]-beta-[[(carboxymethyl)amino]carbonyl]-benzenepropanoic Acid, trifluoroacetate Salt] | 141 | 40
COc1cc(NC(=O)c2cccc(NC(=N)N)c2)ccc1CC(NC(=O)OC(C)C)C(=O)O (stereo not drawn) [Example 113, 4-[[[3-[(aminoiminomethyl)amino]phenyl]carbonyl]amino]-2-methoxy-N-[(1-methylethoxy)carbonyl]phenylalanine, trifluoroacetate salt, monohydrate] | 1 | 253
N=C(N)Nc1cccc(C(=O)Nc2ccc(S(=O)(=O)CC(=O)O)cc2)c1 [Example 83, [[4-[[[3-[(aminoiminomethyl)amino]phenyl]carbonyl]amino]phenyl]sulfonyl]acetic Acid] | 1900 | 474
N=C(N)Nc1cccc(C(=O)Nc2ccc(CCC(=O)O)cc2O)c1 [Example 75, 4-[[[3-[(aminoiminomethyl)amino]phenyl]-carbonyl]amino]-3-hydroxybenzenepropanoic Acid, trifluoroacetate Salt] | 14.5 | 330
CCOC(=O)NC(Cc1ccc(NC(=O)c2cccc(NC(=N)N)c2)cc1)C(=O)OCC (stereo not drawn) [Example 38, 4-[[[3-[(aminoiminomethyl)amino]phenyl]-carbonyl]amino]-N-(ethoxycarbonyl)phenylalanine Ethyl Ester, trifluoroacetate Salt] | 106 | 3360
N=C(N)Nc1cccc(C(=O)Nc2ccc(CCC(=O)O)c(CCC(=O)O)c2)c1 [Example 100, 4-[[[3-[(aminoiminomethyl)amino]phenyl]carbonyl]amino]benzene-1,2-dipropanoic Acid, trifluoroacetate Salt] | 6 | 44
N=C(N)Nc1cccc(C(=O)Nc2ccc(CC(NS(=O)(=O)/C=C/c3ccccc3)C(=O)O)cc2)c1 (stereo not drawn) [Example 123, 4-[[[3-[(aminoiminomethyl)amino]phenyl]carbonyl]amino]-N-[(2-phenylethenyl)sulfonyl]phenylalanine, trifluoroacetate Salt] | 0.5 | 1.5
N=C(N)Nc1cccc(C(=O)Nc2ccc(C(CC(=O)O)C(=O)O)cc2)c1 (stereo not drawn) [Example 69, [4-[[[3-[(aminoiminomethyl)amino]-phenyl]carbonyl]amino]phenyl]butanedioicAcid, trifluoroacetate Salt] | 94 | 37
CCOC(=O)C(Cc1ccc(NC(=O)c2cccc(NC(=N)N)c2)cc1)NS(=O)(=O)c1ccccc1 (stereo not drawn) [Example 40, 4-[[[3-[(aminoiminomethyl)amino]phenyl]-carbonyl]amino]-N-(phenylsulfonyl)phenylalanine Ethyl Ester, monohydrate trifluoroacetate Salt] | 557 | 748
COC(=O)[C@H](Cc1ccc(NC(=O)c2cccc(NC(=N)N)c2)cc1)NC(=O)OC(C)(C)C [Example 45, 4-[[[3-[(aminoiminomethyl)amino]phenyl]-carbonyl]amino]-N-[(1,1-dimethylethoxy)carbonyl]-L-phenylalanine, methyl Ester, trifluoroacetate Salt] | 39.4 | 603
CC(CC(=O)OC(C)(C)C)c1ccc(NC(=O)c2cccc(NC(=N)N)c2)cc1 (stereo not drawn) [Example 30, 1,1-dimethylethyl 4-[[[3-[(aminoiminomethyl)amino]phenyl]carbonyl]amino]-β-methylbenzenepropanoate, trifluoroacetate Salt] | 6370 | 3260
COC(=O)NC(Cc1ccc(NC(=O)c2cccc(NC(=N)N)c2)cc1)C(=O)O (stereo not drawn) [Example 54, 4-[[[3-[(aminoiminomethyl)amino]phenyl]carbonyl]amino]-N-(methoxycarbonyl)phenylalanine, trifluoroacetate Salt] | 0.77 | 36.5
N=C(N)Nc1cccc(C(=O)Nc2ccc(OCC(=O)O)cc2)c1 [Example 81, [4-[[[3-[(aminoiminomethyl)amino]phenyl]-carbonyl]amino]phenoxy]acetic Acid, trifluoroacetate Salt] | 19.1 | 129
